Measurements as given in paper PMC10809383, “Synthesis and migrastatic activity of cytochalasin analogues lacking a macrocyclic moiety” (RSC Medicinal Chemistry, 2023).
“Also recorded” adds a separate entry of the source.

Columns and labels:
[1] = tested on: human melanoma cells (BLM); assay: WST-1 viability assay, BLM cells; type: cell-based
Protocol: (§1) In addition, the cytotoxic activity of compounds 17, 20, and 22–30 was assessed by the WST-1 viability assay using BLM (human melanoma) and MRC-5 (noncancerous human fibroblasts) cells growing in a monolayer (2D cultures, Table 2) after 72 h of treatment.
(§2) Human cells from melanoma (BLM) and human lung fibroblasts (MRC-5, Merck, USA) were used to evaluate in vitro cytotoxicity of the prepared compounds. The cells were maintained at the exponential phase of growth (passaging done by trypsin–EDTA solution) in DMEM and MEM, for BLM and MRC-5, respectively, with stable L-glutamine and supplemented with 10% fetal bovine serum (Thermo Fisher Scientific, USA). The cells were kept in an incubator at 37 °C, 5% CO2 in the atmosphere, and 95% humidity.
(§3) The compound cytotoxicity was determined by a WST-1 viability assay (Merck, USA). The amount of 5000 BLM and MRC-5 cells were seeded into individual wells of 96-well plates in 100 μL of cell cultivation media and maintained in an incubator for 16 h. After this period, the cells were treated with a concentration series (0–50 μM) of the tested compounds diluted in another 100 μL of cultivation media, which was added to the wells containing cells and incubated for 72 h. Then, BLM and MRC-5 cell viability was evaluated by WST-1 agent (5% v/v solution in phenol red-free DMEM media), i.e., the cell media was discarded and 100 μL of WST-1 solution was added. After 2 h incubation, the absorbance of formazan, derived from the WST-1 tetrazolium salt was determined spectrophotometrically at 450 nm (reference at 650 nm) by a UV-vis spectrophotometer (Bio-Rad, USA). Untreated cells, cells treated only with a vehicle, and cells treated with cytochalasin B (1) and D (2) served as controls. The measurement occurred in three independent repetitions each of which consisted of three technical replicates. The data were plotted as dose–response curves from which the half-maximal inhibitory concentrations (IC50) were calculated using AAT Bioquest.

actin = target: T1, actin (Oryctolagus cuniculus, UniProt P68135); assay: Actin polymerization assay (pyrene-actin, Actin Polymerization Biochem Kit); type: biochemical; conditions: 10 μM, in vitro
T1 construct: purchased Cytoskeleton, Inc, Denver, CO
Protocol: To further ascertain the compounds' interference with actin polymerization, the active compounds, along with CytB (1) as a positive control and compound 26 as a negative control, were subjected to an in vitro actin polymerization assay (Fig. 2B). […] This correlation between actin inhibitory activity and migrastatic effect underscores the pivotal role of actin polymerization inhibition in mediating the observed migrastatic activity.
Actin polymerization assay was performed using Actin Polymerization Biochem Kit™ (Cytoskeleton, Inc, Denver, CO) according to the manufacturer protocol. Briefly, 25 μL of G-buffer containing labelled pyrene-actin (0.4 mg mL^−1) and 2.48 μL of either DMSO (10 μM, control) or inhibitor (10 μM) was added in […] well plate. Actin polymerization was initiated by the addition of 2.48 μL of 10× actin polymerization buffer and analysed in time until fluorescent signal plateau was reached using a spectrophotometer (Infinite 200 PRO, Tecan Life Sciences, Tecan Group Ltd., Zürich, CHE). The fluorescence emission intensity of actin polymerization was measured at 420 nm and 360 nm was used as excitation wavelength. Statistical analysis was performed in GraphPad using one-way ANOVA. Measurements were performed in three independent repetitions each consisting of at least three technical replicates. For a representative graph from this assay, see ESI, ^† Fig. S2.

[2] = tested on: human melanoma cell line BLM; assay: Spheroid invasion assay (migrastatic activity); type: cell-based; conditions: 24 h
Protocol: Compounds 17, 20, and 22–30 were screened for their migrastatic activity using a spheroid invasion assay with the human melanoma cell line BLM.[46] Spheroids were formed and subsequently treated with cytochalasin analogues at a concentration of 10 μM for 24 h. CytB (1) and CytD (2) served as reference compounds for comparison. There was no significant increase in cell migration observed for any of the compounds tested. […] However, the effect was less profound than that of the reference compounds 1 and 2.
The spheroid invasion assay was performed following a previously published protocol.[63] Briefly, BLM cells were grown as spheroids using 3D Petri Dish (Microtissues). After 2 days of spheroid formation, 1.5 mg mL^−1 collagen solution (rat tail, collagen type I) was prepared (1.5 mg mL^−1 rat-tail collagen, 1× DMEM, 1% (v/v) FBS) and added at the bottom of a 96-well plate. Spheroids were embedded into the collagen (one spheroid per well) and covered with another layer of the gel. Collagen was polymerized at 37 °C and subsequently overlaid with a cultivation medium. Images of spheroids were taken with Leica TCS SP2 microscope (5×/0.15 dry objective; LAS X Life Science Microscope software) immediately after their seeding into collagen and again after 24 h. The area of the spheroids at 0 and 24 h was measured using FiJi (Rasband, W.S., ImageJ, NIH, Bethesda, MD, USA). Cellular invasiveness was determined as an increase in spheroid area within 24 h. Three independent experiments were conducted with at least 8 spheroids analysed in each experiment. Statistical analysis was performed in GraphPad using one-way ANOVA. For numeric data and representative images from this assay, see ESI, ^† Table S1 and Fig. S1.
Table S1: Spheroid invasion assay with BLM cell line at 10 µM concentration, 24 h.
Figure S1: Representative images of BLM cell spheroid invasion assay with or without
inhibitor. Images were taken at 0 h and 24 h. using a Leica TCS SP2 microscope (5x/0.15
dry objective). DMSO (first column) was used as a control. Scale bar 500 µm.

[3] = tested on: HT1080 fibrosarcoma cells; assay: Fluorescence microscopy of actin cytoskeleton (SPY650-FastAct time-lapse); type: cell-based; conditions: for effect on the actin cytoskeleton: 10 μM
Protocol: Next, we conducted experiments to assess the impact of compound 24, CytB (1) and CytD (2) on the actin cytoskeleton using fluorescence microscopy in HT1080 fibrosarcoma cells (Fig. 3). […] Therefore, we increased the concentration up to 50 μM.
HT1080 cells were seeded into 12-well glass bottom plate and stained with SPY650-FastAct™ following manufacturer's protocol. Untreated cells (control) were imaged every 20 s for 15 min using Leica TCS SP2 microscope (40×/0.6 dry objective). Afterwards, an inhibitor (compound 24 at 10 μM; 50 μM or compound 1 and 2 at 10 μM) was added into the same well and its effect was recorded for 15 min (20 s/image). All video recordings were analyzed using FiJi (Rasband, W.S., ImageJ, NIH, Bethesda, MD, USA).

[4] = tested on: human fibroblasts (MRC-5); assay: WST-1 viability assay, MRC-5 cells; type: cell-based; conditions: MRC5, 72 h treatment, WST-1 assay, 2D culture, 0–50 μM
Protocol: as §1, §2, §3

C=C1[C@@H](C)[C@H]2[C@H](Cc3ccccc3)NC(=O)[C@@]2(C(=O)OC)[C@@H](CCOCCc2ccccc2)[C@@H]1O [Compound 24, Methyl (1S,3aS,4R,5S,7S,7aR)-1-benzyl-5-hydroxy-7-methyl-6-methylene-3-oxo-4-(2-phenethoxyethyl)octahydro-3aH-isoindole-3a-carboxylate]
IC50 ([1]; Homo sapiens, 72 h treatment, WST-1 assay, 2D culture, 0–50 μM): > 50 µM | cytotoxicity (in words) ([1]; WST-1, up to 50 μM, cell line not given): non-cytotoxic | inhibition of actin polymerization (in words) (actin): inhibit actin polymerization; also recorded: inhibition of actin polymerization | migrastatic activity (cell migration, in words) ([2]; 10 μM, BLM spheroid invasion): significant in vitro migrastatic activity; also recorded: significant decrease in cell migration; also recorded: most potent migrastatic activity | rel. spheroid area ([2]; 10 µM, BLM spheroids in collagen, DMSO control 1.02): 0.46 | effect on the actin cytoskeleton ([3]; after 5 min): observable alterations became apparent | effect on the actin cytoskeleton ([3]; within 2 min of addition): no effect was observed | change in cell morphology ([3]; 50 μM, after 2 min): visible change in cell morphology was observed | IC50 [4]: > 50 µM
